What is called EC50 is the concentration giving half of the maximal effect.

The subject of this assay is HBV viral load (viral production from HepAD38 cells). The assay is described as follows: Activity of test compounds on viral production from HepAD38 cells (viral load by qPCR of HBV core sequence). The class given is cell-based. To be noted: viral load lowering, 5 days, qPCR of supernatant, read-out: VL HepAD38 EC50 range. Summed up:
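HepAD38 cells seeded at 50,000/well in tetracycline-free medium with 2% FBS, treated 5 days at 37 °C with compounds from 10 μM top concentration. Supernatant HBV DNA quantified by TaqMan qPCR of core sequence against HBV DNA standards, relative to DMSO wells; viability by CellTiter-Glo; EC50/CC50 by four-parameter logistic fit.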
In general terms: In qPCR the cycle at which signal appears reflects the starting amount.

Where [1] appears, read: Hepatitis B virus, HePAD38, 120 h.

Like-named read-outs stand apart in the source and are kept apart here.

With `CC(C)n1cc(C(F)(F)F)c(C2(O)CC3CC(c4ncn(C)c4C(=O)Nc4ccc(F)c(Cl)c4)CC3C2)n1` (stereo not drawn) [Example 160, N-(3-Chloro-4-fluorophenyl)-4-(5-hydroxy-5-(1-isopropyl-4-(trifluoromethyl)-1H-pyrazol-3-yl)octahydropentalen-2-yl)-1-methyl-1H-imidazole-5-carboxamide], under setting [1], the EC50 was less than 10 nM.

In the case of `Cn1cc(C2(O)CC3CC(c4ncn(C)c4C(=O)Nc4ccc(F)c(Cl)c4)CC3C2)c(F)n1` (stereo not drawn) [Example 175, N-(3-Chloro-4-fluorophenyl)-4-(5-(3-fluoro-1-methyl-1H-pyrazol-4-yl)-5-hydroxyoctahydropentalen-2-yl)-1-methyl-1H-imidazole-5-carboxamide], the EC50 under setting [1] was less than 10 nM.

In the case of `CN(C)c1cc(C2(O)CC3CC(c4ncn(C)c4C(=O)Nc4ccc(F)c(Cl)c4)CC3C2)n(C)n1` (stereo not drawn) [Example 199, N-(3-Chloro-4-fluorophenyl)-4-(5-(3-(dimethylamino)-1-methyl-1H-pyrazol-5-yl)-5-hydroxyoctahydropentalen-2-yl)-1-methyl-1H-imidazole-5-carboxamide], under setting [1], the EC50 is less than 10 nM. The same measure, in the same setting: for `Cn1cnc(C2CC3CC(NC4CC4)CC3C2)c1C(=O)Nc1ccc(F)c(Cl)c1` (single isomer, unassigned) [Example 44, 5-[-5-(Cyclopropylamino)-1,2,3,3a,4,5,6,6a-octahydropentalen-2-yl]-N-(3-chloro-4-fluorophenyl)-3-methyl-4-imidazolecarboxamide] the value was 10 to 50 nM. On to `Cn1cnc(C2CC3CC(O)(C(F)(F)F)CC3C2)c1C(=O)Nc1ccc(F)c(Cl)c1` (stereo not drawn) [Example 12, N-(3-Chloro-4-fluorophenyl)-4-(5-hydroxy-5-(trifluoromethyl)octahydropentalen-2-yl)-1-methyl-1H-imidazole-5-carboxamide], for which, under setting [1], the concentration giving a half-maximal response (EC50) was less than 10 nM. On the same count and under the same terms, for `Cc1cnn(C)c1C1(O)CC2CC(c3ncn(C)c3C(=O)Nc3ccc(F)c(Cl)c3)CC2C1` (stereo not drawn) [Example 131, N-(3-chloro-4-fluorophenyl)-4-(5-(1,4-dimethyl-1H-pyrazol-5-yl)-5-hydroxyoctahydropentalen-2-yl)-1-methyl-1H-imidazole-5-carboxamide] the value was less than 10 nM; for `Cn1c(C#N)nc(C2CC3CC(O)CC3C2)c1C(=O)Nc1ccc(F)c(Cl)c1` (stereo not drawn) [Example 42, 5-[-5-Hydroxy-1,2,3,3a,4,5,6,6a-octahydropentalen-2-yl]-N-(3-chloro-4-fluorophenyl)-2-cyano-3-methyl-4-imidazolecarboxamide], 10 to 50 nM. Same read-out and setting: for `CC(C)n1nc(N)c(Cl)c1C1(O)CC2CC(c3ncn(C)c3C(=O)Nc3ccc(F)c(Cl)c3)CC2C1` (stereo not drawn) [Example 102, 4-(5-(3-amino-4-chloro-1-isopropyl-1H-pyrazol-5-yl)-5-hydroxyoctahydropentalen-2-yl)-N-(3-chloro-4-fluorophenyl)-1-methyl-1H-imidazole-5-carboxamide] the value was less than 10 nM; for `Cn1cnc(C2CC3CC(O)(c4cc[nH]n4)CC3C2)c1C(=O)Nc1ccc(F)c(Cl)c1` (stereo not drawn) [Example 116, N-(3-chloro-4-fluorophenyl)-4-(5-hydroxy-5-(1H-pyrazol-3-yl)octahydropentalen-2-yl)-1-methyl-1H-imidazole-5-carboxamide], less than 10 nM; for `CN(C)c1ccn(CC2(O)CC3CC(c4ncn(C)c4C(=O)Nc4ccc(F)c(Cl)c4)CC3C2)n1` (stereo not drawn) [Example 96, N-(3-chloro-4-fluorophenyl)-4-(5-((3-(dimethylamino)-1H-pyrazol-1-yl)methyl)-5-hydroxyoctahydropentalen-2-yl)-1-methyl-1H-imidazole-5-carboxamide], less than 10 nM.

On to `Cn1cnc(C2CC3CC(O)(c4c(F)c(OCC(C)(C)O)nn4C)CC3C2)c1C(=O)Nc1ccc(F)c(Cl)c1` (stereo not drawn) [Example 212, N-(3-Chloro-4-fluorophenyl)-4-(5-(4-fluoro-3-(2-hydroxy-2-methylpropoxy)-1-methyl-1H-pyrazol-5-yl)-5-hydroxyoctahydropentalen-2-yl)-1-methyl-1H-imidazole-5-carboxamide], for which, under setting [1], the EC50 was less than 10 nM.

On to `Cn1cnc(C2CC3CC(O)(c4cccc(F)c4)CC3C2)c1C(=O)Nc1ccc(F)c(Cl)c1` (stereo not drawn) [Example 6, N-(3-Chloro-4-fluorophenyl)-4-(5-(3-fluorophenyl)-5-hydroxyoctahydropentalen-2-yl)-1-methyl-1H-imidazole-5-carboxamide], for which the EC50 under setting [1] was less than 10 nM. `CC(O)COc1cc(C2(O)CC3CC(c4ncn(C)c4C(=O)Nc4ccc(F)c(Cl)c4)CC3C2)n(C)n1` (single isomer, unassigned) [Example 210, N-(3-Chloro-4-fluorophenyl)-4-(5-hydroxy-5-(3-(2-hydroxypropoxy)-1-methyl-1H-pyrazol-5-yl)octahydropentalen-2-yl)-1-methyl-1H-imidazole-5-carboxamide]: the EC50 was less than 10 nM. As for `Cc1nc(C2CC3CC(O)(c4nccn4C)CC3C2)c(C(=O)Nc2ccc(F)c(Cl)c2)n1C` (single isomer, unassigned) [Example 27, N-(3-Chloro-4-fluorophenyl)-4-(5-hydroxy-5-(1-methyl-1H-imidazol-2-yl)octahydropentalen-2-yl)-1,2-dimethyl-1H-imidazole-5-carboxamide], the EC50 under setting [1] is less than 10 nM. Take `Cn1cnc(C2CC3CC(O)(c4c(F)c(C(C)(C)O)nn4C)CC3C2)c1C(=O)Nc1ccc(F)c(Cl)c1` (stereo not drawn) [Example 66, N-(3-Chloro-4-fluorophenyl)-4-(5-(4-fluoro-3-(2-hydroxypropan-2-yl)-1-methyl-1H-pyrazol-5-yl)-5-hydroxyoctahydropentalen-2-yl)-1-methyl-1H-imidazole-5-carboxamide]: the EC50 under setting [1] is less than 10 nM. On the same count and under the same terms, for `CC(C)n1nc(C(F)F)cc1C1(O)CC2CC(c3ncn(C)c3C(=O)Nc3ccc(F)c(Cl)c3)CC2C1` (stereo not drawn) [Example 153, N-(3-Chloro-4-fluorophenyl)-4-(5-(3-(difluoromethyl)-1-isopropyl-1H-pyrazol-5-yl)-5-hydroxyoctahydropentalen-2-yl)-1-methyl-1H-imidazole-5-carboxamide] the value was less than 10 nM; for `O=C1CC2CC(c3nc4n(c3C(=O)Nc3ccc(F)c(Cl)c3)CCC4)CC2C1` (stereo not drawn) [Example 31, N-(3-Chloro-4-fluorophenyl)-2-(5-oxooctahydropentalen-2-yl)-6,7-dihydro-5H-pyrrolo[1,2-a]imidazole-3-carboxamide], less than 10 nM; for `Cn1ccc(C2(O)CC3CC(c4ncn(C)c4C(=O)Nc4ccc(F)c(Cl)c4)CC3C2)n1` (stereo not drawn) [Example 118, N-(3-chloro-4-fluorophenyl)-4-(5-hydroxy-5-(1-methyl-1H-pyrazol-3-yl)octahydropentalen-2-yl)-1-methyl-1H-imidazole-5-carboxamide], less than 10 nM. Take `Cn1cnc(C2CC3CC(O)(CO)CC3C2)c1C(=O)Nc1ccc(F)c(Cl)c1` (single isomer, unassigned) [Example 19, N-(3-Chloro-4-fluorophenyl)-4-(5-hydroxy-5-(hydroxymethyl)octahydro-pentalen-2-yl)-1-methyl-1H-imidazole-5-carboxamide]: the EC50 under setting [1] is less than 10 nM. Turning to `CC(CO)Oc1cc(C2(O)CC3CC(c4ncn(C)c4C(=O)Nc4ccc(F)c(Cl)c4)CC3C2)n(C)n1` (stereo not drawn) [Example 67, N-(3-Chloro-4-fluorophenyl)-4-(5-hydroxy-5-(3-((1-hydroxypropan-2-yl)oxy)-1-methyl-1H-pyrazol-5-yl)octahydropentalen-2-yl)-1-methyl-1H-imidazole-5-carboxamide], the EC50 is less than 10 nM. On to `CCCCC1(O)CC2CC(c3nc(Cl)n(C)c3C(=O)Nc3ccc(F)c(Cl)c3)CC2C1` (stereo not drawn) [Example 113, 4-(5-Butyl-5-hydroxyoctahydropentalen-2-yl)-2-chloro-N-(3-chloro-4-fluorophenyl)-1-methyl-1H-imidazole-5-carboxamide], for which the EC50 under setting [1] is less than 10 nM. On the same count and under the same terms, for `O=C(Nc1ccc(F)c(Cl)c1)c1sc(C(F)(F)F)nc1C1CC2CC(O)CC2C1` (stereo not drawn) [Example 37, N-(3-chloro-4-fluorophenyl)-4-(5-hydroxyoctahydropentalen-2-yl)-2-(trifluoromethyl)thiazole-5-carboxamide] the value was 50 to 500 nM. On the same count and under the same terms, for `Cn1cnc(C2CC3CC(O)(c4cc(C(F)(F)F)n[nH]4)CC3C2)c1C(=O)Nc1ccc(F)c(C#N)c1` (stereo not drawn) [Example 194, N-(3-Cyano-4-fluorophenyl)-4-(5-hydroxy-5-(3-(trifluoromethyl)-1H-pyrazol-5-yl)octahydropentalen-2-yl)-1-methyl-1H-imidazole-5-carboxamide] the value was 10 to 50 nM; for `CC(CO)COc1cc(C2(O)CC3CC(c4ncn(C)c4C(=O)Nc4ccc(F)c(Cl)c4)CC3C2)n(C)n1` (stereo not drawn) [Example 211, N-(3-Chloro-4-fluorophenyl)-4-(5-hydroxy-5-(3-(3-hydroxy-2-methylpropoxy)-1-methyl-1H-pyrazol-5-yl)octahydropentalen-2-yl)-1-methyl-1H-imidazole-5-carboxamide], less than 10 nM; for `Cn1cnc(C2CC3CC(O)(c4ccccc4)CC3C2)c1C(=O)Nc1ccc(F)c(Cl)c1` (stereo not drawn) [Example 8, N-(3-Chloro-4-fluorophenyl)-4-(5-hydroxy-5-phenyloctahydropentalen-2-yl)-1-methyl-1H-imidazole-5-carboxamide], less than 10 nM. The same measure, in the same setting: the value for `Cn1cnc(C2CC3CC(O)(c4c(F)c(OCCO)nn4C)CC3C2)c1C(=O)Nc1ccc(F)c(Cl)c1` (stereo not drawn) [Example 213, N-(3-Chloro-4-fluorophenyl)-4-(5-(4-fluoro-3-(2-hydroxyethoxy)-1-methyl-1H-pyrazol-5-yl)-5-hydroxyoctahydropentalen-2-yl)-1-methyl-1H-imidazole-5-carboxamide] was less than 10 nM. On to `Cn1cnc(C2CC3CC(O)(c4cc(C(C)(C)C)nn4C)CC3C2)c1C(=O)Nc1ccc(F)c(Cl)c1` (single isomer, unassigned) [Example 74], for which the EC50 under setting [1] was less than 10 nM.

The values above are taken from US12655130B2 (ASSEMBLY BIOSCIENCES, INC., priority 2020, dated 2026).
